System: Peritoneal macrophage
Assay: cells
Details: Mus musculus, Swiss, 120 h, read-out: pIC50 (converted)

SMILES | IC50 [µM]
COc1ccc(C(=O)N2CCOCC2)cc1S(=O)(=O)N(Cc1ccccc1)CC(C)(C)C | > 64.6
COc1ccccc1S(=O)(=O)N(Cc1ccccc1)Cc1ccccc1 | > 64.6
COc1ccc(OC)c(S(=O)(=O)N(Cc2ccc(F)cc2)Cc2cnc(OC)nc2OC)c1 | > 64.6
O=S(=O)(c1cc(F)ccc1F)N(Cc1ccc(F)cc1)Cc1ccc(F)cc1 | > 64.6
COc1ccc(C#N)cc1S(=O)(=O)N(Cc1ccccc1)Cc1cnc(C(F)(F)F)nc1 | > 64.6
COc1ccc(S(C)(=O)=O)cc1S(=O)(=O)N(Cc1ccc(F)cc1)Cc1ccc(F)cc1 | > 64.6
COCCN(Cc1ccc(F)cc1)S(=O)(=O)c1cc(C#N)ccc1OC | > 64.6
COc1ccc(C#N)cc1S(=O)(=O)N(Cc1ccccc1)Cc1ccccc1 | > 64.6
COc1ccc(C(=O)N2CCOCC2)cc1S(=O)(=O)N(Cc1ccc(F)cc1)Cc1ccc(C(F)(F)F)nc1 | > 64.6
COc1ccc(S(=O)(=O)N(Cc2ccccc2)Cc2ccccc2)cc1 | > 64.6
COc1ccc(CN2CCOCC2)cc1S(=O)(=O)N(Cc1ccc(F)cc1)Cc1ccc(F)cc1 | > 64.6
Cn1cccc(S(=O)(=O)N(Cc2ccc(F)cc2)Cc2ccc(F)cc2)c1=O | 64.6
COc1ccc(C(=O)N2CCOCC2)cc1S(=O)(=O)N(Cc1ccc(C(F)(F)F)nc1)CC(C)(C)C | > 64.6
COCCOCN1CNc2cc(OC)c(S(=O)(=O)N(Cc3ccccc3)Cc3ccccc3)cc2S1(=O)=O | > 64.6
COc1ccc(N2CCOCC2)cc1S(=O)(=O)N(Cc1ccc(F)cc1)Cc1ccc(F)cc1 | > 64.6
N#Cc1ccccc1S(=O)(=O)N(Cc1ccccc1)Cc1ccccc1 | > 64.6

SMILES | IC50 [µM]
COCCN(Cc1ccc(F)cc1)S(=O)(=O)c1cc(C(=O)N2CCOCC2)ccc1OC | > 64.6
COc1ccc(C(N)=O)cc1S(=O)(=O)N(Cc1ccccc1)Cc1ccccc1 | > 64.6
COc1ccc(C(=O)NC2COC2)cc1S(=O)(=O)N(Cc1ccc(F)cc1)Cc1ccc(F)cc1 | > 64.6
COc1ccc(OC)c(S(=O)(=O)N(Cc2ccc(F)cc2)Cc2nc(C)no2)c1 | > 64.6
COc1ccc(S(N)(=O)=O)cc1S(=O)(=O)N(Cc1ccccc1)Cc1ccccc1 | > 64.6
COc1ccc(C(=O)N2CCOCC2)cc1S(=O)(=O)N(Cc1ccc(F)cc1)CC(C)C | > 64.6
COc1ccc(C#N)cc1S(=O)(=O)N(Cc1ccc(C(F)(F)F)nc1)Cc1ccc(C(F)(F)F)nc1 | > 64.6
COc1ccc(C#N)cc1S(=O)(=O)N(Cc1ccc(F)cc1)C1CCOCC1 | > 64.6
COc1ccc([S+](C)[O-])cc1S(=O)(=O)N(Cc1ccccc1)Cc1ccccc1 (stereo not drawn) | > 64.6
COc1ccc(C(=O)O)cc1S(=O)(=O)N(Cc1ccccc1)Cc1ccccc1 | > 64.6
COc1ncccc1S(=O)(=O)N(Cc1ccccc1)Cc1ccccc1 | 64.6
COc1ccc(C(=O)N2CCOCC2)cc1S(=O)(=O)N(Cc1ccccc1)Cc1cnc(C(F)(F)F)nc1 | > 64.6
COc1ccc(OC)c(S(=O)(=O)N(Cc2ccc(F)cc2)c2ccc(F)cc2)c1 | > 64.6
COc1ccc(OC)c(S(=O)(=O)N(Cc2ccccc2)Cc2ccccc2)c1 | > 64.6
CS(=O)(=O)c1ccccc1S(=O)(=O)N(Cc1ccccc1)Cc1ccccc1 | > 64.6

System: not listed separately
Assay: in vitro
Details: mouse, plasma

SMILES | remaining at 6 h [%]
COc1ccc(C(=O)N2CCOCC2)cc1S(=O)(=O)N(Cc1ccc(F)cc1)Cc1ccc(C(F)(F)F)nc1 | 22
COc1ccc(C(=O)N2CCOCC2)cc1S(=O)(=O)N(Cc1ccccc1)Cc1cnc(C(F)(F)F)nc1 | 42
